The values below come from patent US5126367A, “Psychotropic benzodioxan derivatives” (American Home Products Corporation, priority 1991, dated 1992).

Each structure is given as a SMILES string.

For experiment [1], the target named is T1, serotonin 5-HT1A receptor (Rattus norvegicus, UniProt P19327).
T1 construct: following the procedure of Hall et al., J. Neurochem; 44, 1685 (1985); from tissue; host or cells: brain tissue (from the cited method)
T1 sequence (P19327 1-422): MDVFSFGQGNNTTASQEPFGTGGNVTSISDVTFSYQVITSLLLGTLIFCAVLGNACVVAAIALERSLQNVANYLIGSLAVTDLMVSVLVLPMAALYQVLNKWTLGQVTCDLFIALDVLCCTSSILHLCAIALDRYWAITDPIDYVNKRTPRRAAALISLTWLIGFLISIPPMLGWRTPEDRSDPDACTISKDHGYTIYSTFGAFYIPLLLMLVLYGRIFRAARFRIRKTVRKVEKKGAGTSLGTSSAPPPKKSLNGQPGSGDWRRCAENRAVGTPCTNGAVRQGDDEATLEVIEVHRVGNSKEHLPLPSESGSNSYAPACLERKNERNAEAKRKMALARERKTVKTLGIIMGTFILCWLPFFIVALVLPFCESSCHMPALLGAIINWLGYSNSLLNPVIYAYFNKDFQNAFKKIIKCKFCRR
Put plainly: 5-HT1A Binding: displacement of [3H] 8-OHDPAT. An excerpt: High affinity for the serotonin 5-HT1A receptor was established by testing the claimed compound's ability to displace [^3 H] 8-OHDPAT (dipropylaminotetralin) from the 5-HT1A serotonin receptor following the procedure of Hall et al., J. Neurochem. 44, 1685 (1985). […] The anxiolytic activity of buspirone is believed to be, at least partially, due to its 5-HT1A receptor affinity (Vander Maclen et al., Eur. J. Pharmacol. 1986, 129 (1-2) 133-130).
For orientation: Loss of bound radioactivity is the signal in a displacement assay; it reports binding, not function.

Another experiment concerns the target T2, dopamine D-2 receptor (Rattus norvegicus, UniProt P61169).
T2 construct: from tissue; host or cells: homogenized limbic brain tissue
Briefly: D-2 Binding: displacement of 3H-spiroperidol in homogenized limbic brain tissue. As for the experimental part: High affinity for the dopamine D2 receptor was established by the standard experimental test procedure of Fields, et al., Brain Res., 136, 578 (1977) and Yamamura et al., eds., Neurotransmitter Receptor Binding, Raven Press, New York (1978) wherein homogenized limbic brain tissue is incubated with ^3 H-spiroperidol and various concentrations of test compound, filtered and washed and shaken with Hydrofluor scintillation cocktail (National Diagnostics) and counted in a Packard 460 CD scintillation counter.

The subject of experiment [2] is serotonin syndrome (5-HT1A). Briefly: Production of the serotonin syndrome (agonist activity). Format: in vivo, male Sprague-Dawley CD rats. To be noted: for ED50: Rattus norvegicus, 0.25 h, first 15 minutes after compound administration, read-out: ED50 for producing the serotonin syndrome. As for the experimental part: (§1) Certain of the compounds of this invention were also compared to buspirone in their ability to either produce or antagonize the serotonin syndrome according to the procedure of Smith and Peroutka, Pharmacol. Biochem. Behav. 24: 1513-1519, 1986, in which 250-350 g male Sprague-Dawley CD rats (Charles River) are given either test compound or vehicle and placed individually into plexiglass observation cages. Agonist activity of the compound is determined by scoring for the presence of the serotonin syndrome (forepaw treading, head weaving, tremor, hindlimb abduction, flattened body posture, and Straub tail) during the first 15 minutes after compound administration. Antagonist activity is then determined by a challenge with either of the 5-HT1A agonists 5-methoxy-N,N-dimethyltryptamine (5-MeODMT) or 8-hydroxydipropylaminotetralin.

For experiment [3], the system named is serotonin syndrome (5-HT1A). Put plainly: Antagonism of 5-HT1A agonist-induced (5-MeODMT or 8-OH-DPAT) serotonin syndrome. Format: in vivo, male Sprague-Dawley CD rats. To be noted: for ED50: Rattus norvegicus, rats. As for the experimental part:
as §1

The next experiment relates to 5-HT1A receptor. Conditions: cited from earlier work.
Experiment [4] addresses T1, serotonin 5-HT1A receptor. Conditions: buspirone, standard for anxiolytic activity; cited from earlier work.

T2 sequence (P61169 whole entry): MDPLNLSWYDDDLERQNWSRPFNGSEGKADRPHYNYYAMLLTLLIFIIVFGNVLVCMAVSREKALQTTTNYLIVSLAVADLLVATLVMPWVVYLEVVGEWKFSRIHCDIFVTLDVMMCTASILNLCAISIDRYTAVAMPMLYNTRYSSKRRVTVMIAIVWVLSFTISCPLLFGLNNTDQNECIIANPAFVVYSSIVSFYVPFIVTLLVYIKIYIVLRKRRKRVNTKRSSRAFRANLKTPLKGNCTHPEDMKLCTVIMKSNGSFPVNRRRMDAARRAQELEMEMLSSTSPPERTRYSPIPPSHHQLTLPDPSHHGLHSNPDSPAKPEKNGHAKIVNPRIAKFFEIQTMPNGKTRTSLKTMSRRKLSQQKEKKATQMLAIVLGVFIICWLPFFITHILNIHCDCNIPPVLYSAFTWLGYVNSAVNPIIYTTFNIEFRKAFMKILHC

As usually defined, the inhibition is how much of the control response was suppressed. Lower therefore signals a weak effect. The IC50 is the concentration that gives 50% inhibition. A higher IC50 goes with weaker potency. In turn, `CC1(C)[C@H]2CC[C@]1(CS(=O)(=O)NCCNCC1COc3ccccc3O1)C(=O)C2` (single isomer, unassigned) [Example 8] showed an inhibition at 0.1 µM in experiment [1] of 90%. Besides, the IC50 in experiment [1] (5-HT1A binding) was 9 nM. For the same compound, the inhibition at 1 µM on dopamine D-2 receptor is 49%.

In general, ED50 refers to the midpoint of the dose-response relation. A word on the EC50: it is the midpoint of the concentration-response curve. In the case of `CC1(C)C2CCC1(C(=O)NCCNCC1COc3ccccc3O1)C(=O)C2` (single isomer, unassigned; (+)) [Example 5, (+)-N-[2-[[(2,3-Dihydro-1,4-benzodioxin-2-yl)methyl]amino]ethyl]-7,7-dimethyl-2-oxobicyclo[2,2,1]heptane-1-carboxamide], the ED50 amounted to 3.8 mg/kg in experiment [2] (rats) and 4.7 mg/kg in experiment [3] (challenge with 8-OH-DPAT, read-out: ED50 for antagonizing 8-OH-DPAT induced syndrome). The same compound yielded an inhibition at 0.1 µM in experiment [1] of 97%. In experiment [1] (5-HT1A binding, given as EC50), this compound displayed an EC50 of 3 nM. This compound also yielded an inhibition at 1 µM on dopamine D-2 receptor of 34%.

Regarding `O=C1CC2(CCCC2)CC(=O)N1CCCCNCC1COc2ccccc2O1` (single isomer, unassigned; (-)) [(-)-MDL 72832], in the experiment on 5-HT1A receptor ((-)-isomer vs dextrorotary isomer), the “binding relative to the dextrorotary isomer at the 5-HT1A receptor site” value is given as 32 times.

With `CC1(C)C2CCC1(C(=O)NCCNCC1COc3ccccc3O1)C(=O)C2` (single isomer, unassigned; (-)) [Example 6], the “characterization as agonist/antagonist in the serotonin syndrome test” value in experiment [2] (single dose of 20 mg/kg) was “partial agonist”. 0.1 µM produced 88% inhibition in experiment [1]. This compound also showed an inhibition at 1 µM on dopamine D-2 receptor of 34%.

With `O=C(NCCNCC1COc2ccccc2O1)C12CC3CC(CC(C3)C1)C2` (stereo not drawn) [Example 1, N-[2-[[(2,3-Dihydro-1,4-benzodioxin-2-yl)methyl]amino]ethyl]tricyclo[3,3,1,1(3,7)]-decane-1-carboxamide], the inhibition at 0.1 µM in experiment [1] turned out to be 100%. The inhibition at 1 µM on dopamine D-2 receptor came out at 83%.

`O=C(OCCNCC1COc2ccccc2O1)C12CC3CC(CC(C3)C1)C2` (stereo not drawn) [Example 2, Tricyclo[3,3,1,1(3,7)]decane-1-carboxylic acid 2-[[(2,3-dihydro-1,4-benzodioxin-2-yl)methyl]amino]ethyl ester] had an inhibition at 0.1 µM in experiment [1] of 100%. The same compound displayed an inhibition at 1 µM on dopamine D-2 receptor of 91%.

`O=C(NCCNCC1COc2ccccc2O1)NC12CC3CC(CC(C3)C1)C2` (stereo not drawn) [Example 3, N-[2-[(2,3-Dihydro-1,4-benzodioxin-2-yl)methylamino]ethyl]-N'-tricyclo[3,3,1,1(3,7)]dec-1-ylurea]: the “production of the serotonin syndrome on its own” value in experiment [2] (compound alone, rats) is listed as “did not produce the syndrome on its own”. This compound also had an inhibition at 0.1 µM in experiment [1] of 98%. Further, in experiment [1] (5-HT1A binding), the IC50 is 5 nM. The compound also yielded an inhibition at 1 µM at dopamine D-2 receptor of 27%. The “ability to antagonize the serotonin syndrome” value in experiment [3] (1.0, 3.3, 10.0, and 33.0 mg/kg) was “mimicked buspirone's ability to antagonize the serotonin syndrome”.

In the case of `O=C(NCCNCC1COc2ccccc2O1)NC12CC3CC(CC1C3)C2` (stereo not drawn) [Example 4, N-[2-[(2,3-Dihydro-1,4-benzodioxin-2-yl)methyl]aminoethyl-N'-hexahydro-2,5-methanopentalen-3a(1H)-yl]urea], testing at 0.1 µM in experiment [1] gave an inhibition of 95%. In addition, at dopamine D-2 receptor, testing at 1 µM gave an inhibition of 55%.

Compound `O=C(NCCNCC1COc2ccccc2O1)C12CC3CC(CC1C3)C2` (stereo not drawn) [Example 7, N-[2-[[(2,3-Dihydro-1,4-benzodioxin-2-yl)methyl]amino]ethyl]hexahydro-2,5-methanopentalene-3a(1H)-carboxamide] came in with an inhibition at 0.1 µM in experiment [1] of 98%. Besides, at 1 µM the inhibition on dopamine D-2 receptor was 81%.

On to `O=C1CC2(CCCC2)CC(=O)N1CCCCNCC1COc2ccccc2O1` (stereo not drawn) [MDL 72832, 8-[4-(1,4-benzodioxan-2-ylmethylamino)butyl]-8-azaspiro[4.5]decane-7,9-dione], for which, in the experiment with 5-HT1A receptor, the “5-HT1A ligand character (in words)” value was “selective and stereospecific”.

In the case of `O=C1CC2(CCCC2)CC(=O)N1CCCCN1CCN(c2ncccn2)CC1` [buspirone, reference compound], the “affinity for the 5-HT1A serotonin receptor subtype (in words)” value in experiment [4] is “potent affinity”. Besides, the ED50 in experiment [2] (rats) came out at 7.3 mg/kg; in experiment [3] (challenge with 5-MeODMT, read-out: ED50 for antagonizing 5-MeODMT-induced syndrome) it was 4.6 mg/kg. The “characterization as agonist/antagonist in the serotonin syndrome test” value in experiment [2] (buspirone: from ED50s for production and antagonism) is listed as “partial agonist”.
